Data reported in patent US20080146540A1, “Methods of diagnosis and treatment for asthma, allergic rhinitis and other respiratory diseases based on haplotype association” (priority 2003, published 2008).
Read-outs that look alike come from different tables or passages of the source.

What was measured:
[1] = test system: subjects with Parkinson disease; experiment: Rhinitis episodes in subjects with Parkinson disease on CEP-1347; type: in vivo, human
Excerpt: In a study examining for association of the MAP3K9 gene and Allergic Rhinitis, deCODE found an association of certain MAP3K9 haplotypes (Table 7A) with Allergic Rhinits, with RR of approximately 1.4 for each allele carried (p<0.05). The risk was highest in a subgroup of subjects with Allergic Rhinitis alone (RR of 1.6 and p=0.005). Additional support that the MAP3K9 gene may play a role in Allergic Rhinits comes from a study conducted on subjects with Parkinson disease. […] Indeed, none of the subjects in the 50 mg dose group (n=198) developed rhinitis whereas 6 subjects in the placebo group (n=191) developed rhinitis (p=0.01).

asthma patients [2] = experiment: Phase II clinical study CEP-1347-201: asthma exacerbations and airway remodeling; type: in vivo, human
Excerpt: However, given the near normal lung function of the population evaluated in this exploratory Phase 2 trial, positive trends can only be established with respect to the effects of CEP-1347 in asthma due to lack of statistical significance in certain aspects of the study. Furthermore, the trial patient numbers for at-risk haplotype carriers were not large enough to achieve significant power to adequately test the effect on these haplotype positive patients. The asthma patients enrolled into CEP-1347-201 were well treated with near normal lung function and any apparent lack of treatment effect could be attributed, in part, to deficiencies in study design as opposed to a lack of CEP-1347 effect.
The term “airway remodeling” in bronchial asthma refers to structural changes that occur in conjunction with, or because of, chronic airway inflammation. Airway remodeling results in alterations in the airway epithelium, lamina propria, and submucosa, leading to thickening of the airway wall. Another common attribute of asthmatic airways is eosinophilia. Eosinophils expressing the CCR3 chemokine receptor are drawn from pulmonary circulation primarily by Eotaxin/CCL11, which is overexpressed in asthmatic respiratory membrane epithelial cells, fibroblasts, and smooth muscle cells. […]

MMP-9 = experiment: Phase II clinical study CEP-1347-201: MMP-9 change from baseline; type: in vivo, human; settings: for MMP-9 Change from Baseline at Week 8, LS Mean: ANCOVA
Excerpt: Matrix metalloproteinases (MMPs) are members of a family of proteolytic enzymes that degrade the extracellular matrix and […] tissue inhibitors (TIMPs). Up regulation of MMP-9 results in subepithelial collagen deposition and airway remodeling leading to irreversible airways obstruction in asthma patients. Airway remodeling has and continues to be a research goal of anti-asthma therapies. […] The change in the […] reached statistical significance and the comparison of the pooled CEP-1347 groups versus placebo approached statistical significance (p=0.06).

sE-Selectin = experiment: Phase II clinical study CEP-1347-201: sE-Selectin change from baseline; type: in vivo, human; settings: for sE Selection Change from Baseline at Week 8, LS Mean: ANCOVA
Excerpt: Results from an ANCOVA (analysis of covariance) including treatment group as a factor and the baseline value as a covariate are presented in Table 24.

ICAM-1 = experiment: Phase II clinical study CEP-1347-201: additional biomarkers of inflammation; type: in vivo, human; settings: prior to and 4 and 8 weeks after study drug administration; CEP-1347 vs placebo groups
Protocol: (§1) Biomarkers of inflammation were measured prior to and 4 and 8 weeks after study drug administration.

MCP-1 = experiment: as above; type: in vivo, human; settings: prior to and 4 and 8 weeks after study drug administration; CEP-1347 vs placebo groups
Protocol: as §1

VCAM-1 = experiment: as above; type: in vivo, human; settings: prior to and 4 and 8 weeks after study drug administration; CEP-1347 vs placebo groups
Protocol: as §1

VEGF = experiment: as above; type: in vivo, human; settings: prior to and 4 and 8 weeks after study drug administration; CEP-1347 vs placebo groups
Protocol: as §1

IL-8 = experiment: Phase II clinical study CEP-1347-201: sputum IL-8; type: in vivo, human; settings: samples not collected in a systematic manner
MLK1 = MLK1 (Homo sapiens, UniProt P80192); settings: MLK active site; cited from earlier work
asthma patients [3] = settings: for patients reporting diarrhea: placebo 8%
[4] = biological target: choline acetyltransferase (ChAT); settings: cited from earlier work
TNFα [5] = settings: standard in vitro pharmacological testing procedures (WO 97/49406); cited from earlier work
IL-1β [6] = settings: standard in vitro pharmacological testing procedures (WO 97/49406); cited from earlier work
TNFα [7] = settings: lipopolysaccharide challenge; cited from earlier work
IL-1β [8] = settings: lipopolysaccharide challenge; cited from earlier work
mice = settings: cited from earlier work

Sequence of MLK1 (P80192 whole entry): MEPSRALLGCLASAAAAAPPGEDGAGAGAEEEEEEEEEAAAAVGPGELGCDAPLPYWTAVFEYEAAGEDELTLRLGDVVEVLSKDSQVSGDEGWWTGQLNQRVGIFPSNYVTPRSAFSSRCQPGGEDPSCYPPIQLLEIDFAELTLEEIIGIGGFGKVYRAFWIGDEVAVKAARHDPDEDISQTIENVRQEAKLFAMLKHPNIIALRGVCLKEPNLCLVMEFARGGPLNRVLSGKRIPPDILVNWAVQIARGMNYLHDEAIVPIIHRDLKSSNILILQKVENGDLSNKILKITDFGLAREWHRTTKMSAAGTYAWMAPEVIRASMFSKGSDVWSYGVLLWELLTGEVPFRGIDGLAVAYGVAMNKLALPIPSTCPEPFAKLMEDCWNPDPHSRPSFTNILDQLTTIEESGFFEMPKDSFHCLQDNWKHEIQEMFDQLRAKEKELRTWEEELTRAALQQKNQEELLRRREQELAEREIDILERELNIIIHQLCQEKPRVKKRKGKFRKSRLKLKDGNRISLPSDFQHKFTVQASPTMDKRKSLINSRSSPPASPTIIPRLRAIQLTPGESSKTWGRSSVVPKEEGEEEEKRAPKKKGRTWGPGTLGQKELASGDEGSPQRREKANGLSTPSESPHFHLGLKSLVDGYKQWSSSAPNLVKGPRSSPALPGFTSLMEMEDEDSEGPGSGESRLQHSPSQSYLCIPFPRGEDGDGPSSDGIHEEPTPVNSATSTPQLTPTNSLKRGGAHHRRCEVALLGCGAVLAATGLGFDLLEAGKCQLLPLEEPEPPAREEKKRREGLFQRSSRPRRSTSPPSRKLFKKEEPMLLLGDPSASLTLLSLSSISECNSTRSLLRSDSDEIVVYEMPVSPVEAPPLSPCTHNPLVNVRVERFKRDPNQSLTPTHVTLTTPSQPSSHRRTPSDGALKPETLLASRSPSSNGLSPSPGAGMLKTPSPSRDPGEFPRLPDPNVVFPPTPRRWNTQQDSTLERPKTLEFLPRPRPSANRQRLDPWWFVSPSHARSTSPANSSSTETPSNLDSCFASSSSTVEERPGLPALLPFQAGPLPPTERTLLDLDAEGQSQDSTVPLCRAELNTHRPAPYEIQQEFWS

CCSCc1ccc2c(c1)c1c3c(c4c5cc(CSCC)ccc5n5c4c1n2C1CC(O)(C(=O)OC)C5(C)O1)CNC3=O (stereo not shown) [CEP-1347]
subjects who developed rhinitis ([1]; 50 mg dose group (n=198), 6 subjects in placebo group (n=191), p=0.01): none
AR episodes (rhinitis episodes) ([1]; 50 mg twice daily (bid), N=198, placebo 6 (N=191), p = 0.01): 0
asthma exacerbations (asthma patients [2]; 50 mg BID group, positive trend only): reduction of exacerbations
progression of airway remodeling (asthma patients [2]; in particular with the 25 mg BID dose (FIG. 13)): Positive effects
MMP 9 Change from baseline, Mean (MMP-9; 10 mg BID, 4 Weeks): -89.2 pg/mL
MMP 9 Change from baseline, Median (MMP-9; 10 mg BID, 4 Weeks): -79.4 pg/mL
MMP 9 Observed Values, Mean (MMP-9; 10 mg BID, 4 Weeks): 723.4 pg/mL
MMP 9 Observed Values, Median (MMP-9; 10 mg BID, 4 Weeks): 636.5 pg/mL
MMP 9 Change from baseline, Mean (MMP-9; 10 mg BID, 8 Weeks): -108.5 pg/mL
MMP 9 Change from baseline, Median (MMP-9; 10 mg BID, 8 Weeks): -87.6 pg/mL
MMP 9 Observed Values, Mean (MMP-9; 10 mg BID, 8 Weeks): 687.4 pg/mL
MMP 9 Observed Values, Median (MMP-9; 10 mg BID, 8 Weeks): 596.2 pg/mL
MMP-9 Change from Baseline at Week 8, LS Mean (MMP-9; 10 mg BID, p 0.23): −98.4
MMP-9 change from baseline at week 8 (ANCOVA) (MMP-9; 25 mg BID group relative to placebo, p=0.04): statistically significant reduction
MMP 9 Change from baseline, Mean (MMP-9; 25 mg BID, 4 Weeks): -104.2 pg/mL
MMP 9 Change from baseline, Median (MMP-9; 25 mg BID, 4 Weeks): -104.8 pg/mL
MMP 9 Observed Values, Mean (MMP-9; 25 mg BID, 4 Weeks): 660.4 pg/mL
MMP 9 Observed Values, Median (MMP-9; 25 mg BID, 4 Weeks): 623.4 pg/mL
MMP 9 Change from baseline, Mean (MMP-9; 25 mg BID, 8 Weeks): -147.6 pg/mL
MMP 9 Change from baseline, Median (MMP-9; 25 mg BID, 8 Weeks): -85.0 pg/mL
MMP 9 Observed Values, Mean (MMP-9; 25 mg BID, 8 Weeks): 633.5 pg/mL
MMP 9 Observed Values, Median (MMP-9; 25 mg BID, 8 Weeks): 582.1 pg/mL
MMP-9 Change from Baseline at Week 8, LS Mean (MMP-9; 25 mg BID, p 0.04): −144
MMP 9 Change from baseline, Mean (MMP-9; 50 mg BID, 4 Weeks): -82.4 pg/mL
MMP 9 Change from baseline, Median (MMP-9; 50 mg BID, 4 Weeks): -63.6 pg/mL
MMP 9 Observed Values, Mean (MMP-9; 50 mg BID, 4 Weeks): 704.1 pg/mL
MMP 9 Observed Values, Median (MMP-9; 50 mg BID, 4 Weeks): 704.2 pg/mL
MMP 9 Change from baseline, Mean (MMP-9; 50 mg BID, 8 Weeks): -114.0 pg/mL
MMP 9 Change from baseline, Median (MMP-9; 50 mg BID, 8 Weeks): -60.1 pg/mL
MMP 9 Observed Values, Mean (MMP-9; 50 mg BID, 8 Weeks): 682.5 pg/mL
MMP 9 Observed Values, Median (MMP-9; 50 mg BID, 8 Weeks): 655.1 pg/mL
MMP-9 Change from Baseline at Week 8, LS Mean (MMP-9; 50 mg BID, p 0.19): −104
MMP-9 change from baseline at week 8 (ANCOVA) (MMP-9; all CEP-1347 treatment groups relative to placebo, pooled groups vs placebo p=0.06): greater reduction
sE Selection Change from Baseline at Week 8, LS Mean (sE-Selectin; 10 mg BID, p 0.12): −1.49
sE Selection Change from Baseline at Week 8, LS Mean (sE-Selectin; 25 mg BID, p 0.005): −3.18
sE Selection Change from Baseline at Week 8, LS Mean (sE-Selectin; 50 mg BID, p 0.26): −1.00
sE-Selection levels (sE-Selectin; CEP-1347 treated groups compared to placebo, p=0.02): significantly lower
concentration of ICAM-1 (ICAM-1): No differences
concentration of MCP-1 (MCP-1): No differences
concentration of VCAM-1 (VCAM-1): No differences
concentration of VEGF (VEGF): No differences
sputum IL-8 (ANCOVA) (IL-8): no clear treatment related trends or statistically significant changes
kinetics of inhibition of MLK kinases, mode of action (MLK1): competitive with the binding of adenosine triphosphate
subjects reporting a severe adverse event (asthma patients [3]; 10 mg BID group): 2
subjects reporting a severe adverse event (asthma patients [3]; 25 mg BID group): 1
subjects reporting a severe adverse event (asthma patients [3]; 50 mg BID group): 1
patients reporting diarrhea (asthma patients [3]; CEP-1347 groups, all doses combined): 15%
subjects reporting a severe adverse event, total (asthma patients [3]; all groups): four
patients reporting diarrhea (asthma patients [3]; high dose group (50 mg BID)): 20%
headache incidence (asthma patients [3]; treatment group (all CEP-1347 doses), placebo 5%): 9%
deaths (asthma patients [3]; whole study): no deaths
EC50 ([4]; greater potency than K-252a, read-out: potency (EC50) in spinal cord ChAT assays): 50 nM
efficacy in spinal cord ChAT assays ([4]; greater than K-252a): 250 % of control
production of TNFα by cultured cells (TNFα [5]): inhibit the production
production of IL-1β by cultured cells (IL-1β [6]): inhibit the production
production of TNFα by mice after LPS challenge (TNFα [7]): reduces production
production of IL-1β by mice after LPS challenge (IL-1β [8]): reduces production
protection from LPS-induced death (mice): provides protection
